Results from US20080064718A1, “INHIBITORS OF PROTEIN TYROSINE KINASE ACTIVITY” (priority 2006, published 2008).
Where two headings read alike, the source gives them in different places.

Experiments:
[1] = biological target: recombinant human c-Met/HGF receptor (Homo sapiens, UniProt P08581); test: In vitro receptor tyrosine kinase assay, c-Met/HGF receptor (DELFIA)
VEGF receptor KDR = biological target: T1, VEGF receptor KDR (Homo sapiens, UniProt P35968); test: In vitro receptor tyrosine kinase assay, VEGF receptor KDR (DELFIA); type: biochemical; details: GST-VEGFR2 806-1356, ATP 0.6 uM
T1 construct: made in house; host or cells: Sf9 cells (Spodoptera frugiperda), recombinant baculovirus
T1 sequence (P35968 806-1356): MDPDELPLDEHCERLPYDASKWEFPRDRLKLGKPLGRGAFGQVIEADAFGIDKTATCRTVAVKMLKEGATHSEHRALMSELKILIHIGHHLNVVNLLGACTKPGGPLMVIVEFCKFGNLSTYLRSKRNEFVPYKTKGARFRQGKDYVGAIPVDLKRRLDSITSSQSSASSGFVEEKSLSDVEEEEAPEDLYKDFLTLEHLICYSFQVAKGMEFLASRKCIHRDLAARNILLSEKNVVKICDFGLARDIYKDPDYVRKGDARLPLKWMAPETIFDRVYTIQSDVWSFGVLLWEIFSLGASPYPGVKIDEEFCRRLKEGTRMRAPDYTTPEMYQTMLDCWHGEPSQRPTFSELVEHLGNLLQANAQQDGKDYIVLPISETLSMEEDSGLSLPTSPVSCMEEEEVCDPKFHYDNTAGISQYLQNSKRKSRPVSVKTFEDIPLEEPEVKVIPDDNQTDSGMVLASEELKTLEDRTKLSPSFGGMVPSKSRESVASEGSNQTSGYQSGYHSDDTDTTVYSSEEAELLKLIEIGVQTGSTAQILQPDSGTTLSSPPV
From the text: In the case of VEGF receptor KDR a 1.6-kb cDNA corresponding to the catalytic domain of VEGFR2 or KDR (Genbank accession number AF035121 amino acid 806 to 1356) is cloned into the Pst I site of the pDEST20 Gateway vector (Invitrogen) for the production of a GST-tagged version of that enzyme.
The GST-VEGFR2806-1356 protein is expressed in Sf9 cells (Spodoptera frugiperda) upon infection with recombinant baculovirus construct.
The supernatant is loaded onto a GST-agarose column (Sigma) equilibrated with PBS pH 7.3. Following a four column volume (CV) wash with PBS pH 7.3+1% Triton X-100 and 4 CV wash with buffer B (50 mM Tris pH 8.0, 20% glycerol and 100 mM NaCl), bound proteins are step eluted with 5 CV of buffer B supplemented with 5 mM DTT and 15 mM glutathion. […] Final GST-VEGFR2806-1356 protein preparations concentrations are about 0.7 mg/ml with purity approximating 70%.

DU145 = DU145 scattering; type: cell-based; details: DU145 cells, read-out: CMET DU145 SCATT HEAL- IC50 UM
c-Met = biological target: T2, c-Met (Homo sapiens, UniProt P08581); test: c-Met phosphorylation direct ELISA in MKN45 cells; type: cell-based; details: 3 h treatment
T2 construct: endogenous in cells; host or cells: MKN45 gastric carcinoma cells
T2 sequence (P08581 25-1390): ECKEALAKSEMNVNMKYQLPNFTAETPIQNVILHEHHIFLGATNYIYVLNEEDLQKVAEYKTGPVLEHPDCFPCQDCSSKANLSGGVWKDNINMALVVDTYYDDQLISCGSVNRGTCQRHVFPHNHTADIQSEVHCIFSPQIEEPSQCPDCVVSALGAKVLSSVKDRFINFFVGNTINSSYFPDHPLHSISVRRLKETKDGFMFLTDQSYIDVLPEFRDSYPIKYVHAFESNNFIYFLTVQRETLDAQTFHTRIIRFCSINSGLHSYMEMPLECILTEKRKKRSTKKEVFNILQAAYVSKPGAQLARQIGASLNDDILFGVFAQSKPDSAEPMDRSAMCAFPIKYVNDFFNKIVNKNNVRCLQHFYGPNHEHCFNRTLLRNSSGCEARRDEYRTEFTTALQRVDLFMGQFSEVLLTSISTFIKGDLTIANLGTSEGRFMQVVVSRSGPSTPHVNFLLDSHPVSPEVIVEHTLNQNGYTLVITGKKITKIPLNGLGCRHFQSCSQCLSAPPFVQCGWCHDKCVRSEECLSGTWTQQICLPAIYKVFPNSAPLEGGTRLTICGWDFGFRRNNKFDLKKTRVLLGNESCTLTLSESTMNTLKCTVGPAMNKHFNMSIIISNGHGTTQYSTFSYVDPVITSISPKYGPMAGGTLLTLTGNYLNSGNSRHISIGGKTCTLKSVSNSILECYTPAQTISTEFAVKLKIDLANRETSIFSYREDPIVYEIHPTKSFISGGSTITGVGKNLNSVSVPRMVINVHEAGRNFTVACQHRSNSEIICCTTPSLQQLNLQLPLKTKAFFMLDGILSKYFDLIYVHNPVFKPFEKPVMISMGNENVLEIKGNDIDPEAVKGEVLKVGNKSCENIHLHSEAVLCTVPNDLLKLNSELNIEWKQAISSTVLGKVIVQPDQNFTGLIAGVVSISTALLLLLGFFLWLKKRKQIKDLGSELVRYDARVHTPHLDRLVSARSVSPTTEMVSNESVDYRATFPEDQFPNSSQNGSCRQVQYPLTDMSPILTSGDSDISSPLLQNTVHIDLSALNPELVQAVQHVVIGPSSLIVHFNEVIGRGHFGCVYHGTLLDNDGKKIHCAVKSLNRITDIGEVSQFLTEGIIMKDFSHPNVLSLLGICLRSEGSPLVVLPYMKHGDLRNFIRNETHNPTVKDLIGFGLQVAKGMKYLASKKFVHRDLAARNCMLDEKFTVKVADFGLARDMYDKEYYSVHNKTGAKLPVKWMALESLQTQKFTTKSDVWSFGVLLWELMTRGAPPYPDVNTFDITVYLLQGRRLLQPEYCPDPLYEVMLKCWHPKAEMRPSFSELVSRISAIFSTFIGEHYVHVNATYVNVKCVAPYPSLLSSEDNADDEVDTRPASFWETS
Procedure: Alternatively, the following assay is used to determine inhibition of c-Met phosphorylation.
The c-Met receptor is expressed in numerous cancer cell lines derived from tumors of epithelial origin. In MKN45 gastric carcinoma cells the c-Met gene is amplified, resulting in several-fold overexpression of the receptor and its constitutive activation.
Cell treatments: MKN45 cells are seeded into wells of 96-well plates at a density of 3×10^4 cells/well in RPMI medium supplemented with 10% FBS. […] Inhibitors are added to the medium in triplicate wells at the indicated doses.
After an overnight protein binding incubation at 4° C., lysates are aspirated and wells are blocked for 1 h at 37° C. in TBST supplemented with 5% BSA. Plates are incubated with the primary antibodies anti-phospho-Tyrosine (Millipore, 4G10) diluted 1/15000 in TBST supplemented with 5% BSA for 1 h at room temperature. Plates are washed 3 times on a plate washer (SkanWasher, Molecular Devises), and incubated with the reporter antibody […] (Sigma) diluted 1/15000 in TBST supplemented with 5% BSA, for 1 h at room temperature. Plates are washed 3 times with TBST using on a plate washer and subsequently incubated with chemiluminescent substrate solution (ECL, Roche). Luminescence signal is captured on a Polar Star Optima apparatus (BMG LabTech).
Average values of the triplicate samples are used to prepare IC50 curves using a 4-parameter fit model. These curves are calculated using, for example, GraFit 5.0 software. For assay standardization purpose, an internal control is included on each experimental test plate.

A549 = A549 inhibition of wound healing; type: cell-based; details: read-out: A549 INHIB WND ING IC50 UM

Sequence of recombinant human c-Met/HGF receptor (P08581 1078-1337): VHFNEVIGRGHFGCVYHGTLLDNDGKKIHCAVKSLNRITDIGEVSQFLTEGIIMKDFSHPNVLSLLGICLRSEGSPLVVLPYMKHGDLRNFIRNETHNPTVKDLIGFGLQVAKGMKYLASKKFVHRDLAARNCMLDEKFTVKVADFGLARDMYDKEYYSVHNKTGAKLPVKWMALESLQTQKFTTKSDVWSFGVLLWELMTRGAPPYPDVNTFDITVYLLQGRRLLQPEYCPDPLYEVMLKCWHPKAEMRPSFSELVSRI

| IC50 [1] [nM] | IC50 (VEGF receptor KDR; read-out: VEGFR IC50) [nM] | IC50 (DU145; Homo sapiens, DU-145) [nM] | IC50 (c-Met) [nM] | IC50 (A549; Homo sapiens, A549 cells) [nM] | IC50 (VEGF receptor KDR; read-out: VEGFR (IC50)) [nM] | SMILES | IC50 (A549; Homo sapiens, A549, A549 cells) [nM] | IC50 (A549; A549 cells) [nM] | IC50 (DU145) [nM] |
| --- | --- | --- | --- | --- | --- | --- | --- | --- | --- |
| < 250 | > 1000 | > 1000 | > 1000 | > 1000 |  | O=C(O)c1ccc(-c2cc3nccc(Oc4ccc(NC(=O)c5cnn(-c6ccccc6)c5C(F)(F)F)cc4F)c3s2)nc1 |  |  |  |
| < 250 | < 250 | 250 to 500 | < 250 | 250 to 500 |  | COC[C@H](C)NCc1cccc(-c2cc3nccc(Oc4ccc(NC(=O)N5CCN(c6ccccc6)C5=O)cc4F)c3s2)c1 |  |  |  |
| < 250 | > 1000 | > 1000 | 500 to 1000 | 250 to 500 |  | Cn1cnc(-c2cc3nccc(Oc4ccc(NC(=O)c5cnn(-c6ccccc6)c5C(F)(F)F)cc4F)c3s2)c1 |  |  |  |
| < 250 | < 250 | < 250 | < 250 | < 250 |  | O=C(Nc1ccc(Oc2ccnc3cc(-c4cccc[n+]4[O-])sc23)c(F)c1)N1CCN(c2ccc(F)cc2)C1=O |  |  |  |
| 250 to 500 | < 250 | > 1000 | > 1000 | > 1000 |  | O=C(NNC(=O)c1ccccc1)Nc1ccc(Oc2ccnc3cc(C4=CCNCC4)sc23)c(F)c1 |  |  |  |
| < 250 | > 1000 | > 1000 |  | > 1000 |  | CN(C)C(=O)c1ccc(-c2cc3nccc(Oc4ccc(NC(=O)c5cnn(-c6ccc(F)cc6)c5C(F)(F)F)cc4F)c3s2)cc1 |  |  |  |
| < 250 | > 1000 | > 1000 |  | 250 to 500 |  | COCCN(C)C(=O)c1ccc(-c2cc3nccc(Oc4ccc(NC(=O)c5cnn(-c6ccccc6)c5C(F)(F)F)cc4F)c3s2)nc1 |  |  |  |
| < 250 | < 250 | 250 to 500 | < 250 | 250 to 500 |  | CN(C)CCOC(=O)N1CC=C(c2cc3nccc(Oc4ccc(NC(=O)N5CCN(c6ccccc6)C5=O)cc4F)c3s2)CC1 |  |  |  |
| < 250 | < 250 | 250 to 500 | < 250 | > 1000 |  | CS(=O)(=O)CCNCc1ccc(-c2cc3nccc(Oc4ccc(NC(=O)N5CCN(c6ccccc6)C5=O)cc4F)c3s2)cc1 |  |  |  |
|  |  |  |  |  | < 250 | Cn1cnc(-c2cc3nccc(Oc4ccc(NC(CC(=O)Nc5ccccc5)C(F)(F)F)cc4F)c3s2)c1 (centres unmarked) [Compound 8, 4,4,4-Trifluoro-3-(3-fluoro-4-(2-(1-methyl-1H-imidazol-4-yl)thieno[3,2-b]pyridin-7-yloxy)phenylamino)-N-phenylbutanamide] |  |  |  |
| > 1000 | > 1000 |  |  |  |  | Cn1ccnc1-c1cc2nccc(Oc3ccc(NC(=O)c4ncc(-c5ccccc5)s4)cc3F)c2s1 |  |  |  |
| > 1000 | > 1000 | > 1000 |  | > 1000 |  | CCOC(=O)c1ccc(-c2cc3nccc(Oc4ccc(NC(=O)c5cnn(-c6ccccc6)c5C(F)(F)F)cc4F)c3s2)cc1 |  |  |  |
| < 250 | < 250 | < 250 | < 250 | 250 to 500 |  | COCCNCc1cccc(-c2cc3nccc(Oc4ccc(NC(=O)N5CCN(c6ccccc6)C5=O)cc4F)c3s2)c1 |  |  |  |
| < 250 | < 250 | < 250 | < 250 | 250 to 500 |  | O=C(Nc1ccc(Oc2ccnc3cc(-c4ccc(CNC5CC5)cc4)sc23)c(F)c1)N1CCN(c2ccccc2)C1=O |  |  |  |
| 250 to 500 | > 1000 | > 1000 | < 250 | 250 to 500 |  | COCCN(C)Cc1ccc(-c2cc3nccc(Oc4ccc(NC(=O)NNc5ccccc5)cc4F)c3s2)cc1 |  |  |  |
| < 250 | > 1000 |  |  |  |  | Cn1ccnc1-c1cc2nccc(Oc3ccc(NC(=O)c4ccc(-c5ccccc5)cc4F)cc3F)c2s1 |  |  |  |
| < 250 | > 1000 | 250 to 500 |  | < 250 |  | CS(=O)(=O)c1ccc(-c2cc3nccc(Oc4ccc(NC(=O)c5cnn(-c6ccccc6)c5C(F)(F)F)cc4F)c3s2)nc1 |  |  |  |
| < 250 | < 250 | 250 to 500 | 250 to 500 | 250 to 500 |  | C=CCN1CCN(C(=O)Nc2ccc(Oc3ccnc4cc(-c5cn(CC)cn5)sc34)c(F)c2)C1=O |  |  |  |
|  |  |  |  |  | < 250 | Cn1cnc(-c2cc3nccc(Oc4ccc(NC(=O)CC(Nc5ccccc5)C(F)(F)F)cc4F)c3s2)c1 (centres unmarked) [Compound 12, 4,4,4-Trifluoro-N-(3-fluoro-4-(2-(1-methyl-1H-imidazol-4-yl)thieno[3,2-b]pyridin-7-yloxy)phenyl)-3-(phenylamino)butanamide] |  |  |  |
| < 250 | < 250 | < 250 | < 250 | < 250 |  | COC[C@H](C)NCc1ccc(-c2cc3nccc(Oc4ccc(NC(=O)N5CCN(c6ccccc6)C5=O)cc4F)c3s2)cc1 |  |  |  |
| 250 to 500 | 250 to 500 |  | < 250 |  |  | CS(=O)(=O)c1ccc(-c2cc3nccc(Oc4ccc(NC(=O)N5CCN(c6ccccc6)C5=O)cc4F)c3s2)cc1 |  |  |  |
| < 250 | < 250 | 250 to 500 | < 250 | > 1000 |  | O=C(Nc1ccc(Oc2ccnc3cc(-c4cnn(C5CCNCC5)c4)sc23)c(F)c1)N1CCN(c2ccccc2)C1=O |  |  |  |
| < 250 | > 1000 | 250 to 500 | 250 to 500 | 250 to 500 |  | COCCNCc1ccc(-c2cc3nccc(Oc4ccc(NC(=O)c5cnn(-c6ccccc6)c5C(F)(F)F)cc4F)c3s2)nc1 |  |  |  |
| 500 to 1000 | < 250 | > 1000 | 500 to 1000 | > 1000 |  | CCn1cnc(-c2cc3nccc(Oc4ccc(N(C)C(=O)N5CCN(c6ccccc6)C5=O)cc4F)c3s2)c1 |  |  |  |
|  | 250 to 500 | > 1000 | 500 to 1000 | > 1000 |  | O=C(Nc1ccc(Oc2ccnc3cc(-c4ccc(CNCC(F)(F)F)cc4)sc23)c(F)c1)N1CCN(c2ccccc2)C1=O |  |  |  |
| < 250 | < 250 | > 1000 | 500 to 1000 | 250 to 500 |  | Cn1ccnc1-c1cc2nccc(Oc3ccc(NC(=O)c4cccc(-c5ccccc5)c4F)cc3F)c2s1 |  |  |  |

| SMILES | IC50 [1] [nM] | IC50 (VEGF receptor KDR; read-out: VEGFR IC50) [nM] | IC50 (DU145; Homo sapiens, DU-145) [nM] | IC50 (c-Met) [nM] | IC50 (A549; Homo sapiens, A549 cells) [nM] | IC50 (VEGF receptor KDR; read-out: VEGFR (IC50)) [nM] | IC50 (A549; Homo sapiens, A549, A549 cells) [nM] | IC50 (A549; A549 cells) [nM] | IC50 (DU145) [nM] |
| --- | --- | --- | --- | --- | --- | --- | --- | --- | --- |
| Cc1c(C(=O)Nc2ccc(Oc3ccnc4cc(-c5cn(C)cn5)sc34)c(F)c2)cnn1-c1ccccc1 |  | > 1000 | > 1000 |  |  |  | 250 to 500 |  |  |
| Cn1cnc(-c2cc3nccc(Oc4ccc(NC(=O)c5cnn(-c6ccccc6)c5)cc4F)c3s2)c1 [drawing 192] |  | > 1000 | > 1000 |  |  |  |  | 250 to 500 |  |
| Cn1cnc(-c2cc3nccc(Oc4ccc(NC(=O)c5cnn(C)c5C(F)(F)F)cc4F)c3s2)c1 | < 250 | 500 to 1000 | > 1000 |  | > 1000 |  |  |  |  |
| COCCNC(=O)c1ccc(-c2cc3nccc(Oc4ccc(NC(=O)c5cnn(-c6ccccc6)c5C(F)(F)F)cc4F)c3s2)nc1 |  | > 1000 | > 1000 |  |  |  | > 1000 |  |  |
| CN(C)C(=O)c1ccc(-c2cc3nccc(Oc4ccc(NC(=O)c5cnn(-c6ccccc6)c5C(F)(F)F)cc4F)c3s2)cc1 |  | > 1000 | 250 to 500 |  |  |  | < 250 |  |  |
| CN(C)C(=O)c1ccc(-c2cc3nccc(Oc4ccc(NC(=O)c5cnn(-c6ccccc6)c5C(F)(F)F)cc4F)c3s2)nc1 |  | > 1000 | 250 to 500 |  |  |  | 250 to 500 |  |  |
| Cn1ccnc1-c1cc2nccc(Oc3ccc(NC(=O)c4cnn(-c5ccccc5)c4C(F)(F)F)cc3F)c2s1 |  | > 1000 | > 1000 |  |  |  | > 1000 |  |  |
| Cn1cnc(-c2cc3nccc(Oc4ccc(NC(=O)c5cnn(-c6ccccc6)c5)cc4F)c3s2)c1 [drawing 202] |  | 500 to 1000 |  |  |  |  |  | > 1000 | > 1000 |
| CS(=O)(=O)CCNCc1ccc(-c2cc3nccc(Oc4ccc(NC(=O)c5cnn(-c6ccccc6)c5C(F)(F)F)cc4F)c3s2)cc1 |  | > 1000 | > 1000 |  |  |  | > 1000 |  |  |
